Test results reported in ChEMBL document CHEMBL4017512 (J Med Chem, 2017).

Assays:
[1] = Cytotoxicity against human HCT116/VM46 cells assessed as reduction in cell viability after 72 hrs by phosphatase assay; type: cell-based; conditions: HCT-116/VM46, 72 h
[2] = target: MDR1 (ABCB1, P-gp) ATPase (Homo sapiens, UniProt P08183); assay: Inhibition of MDR1 (unknown origin) ATPase activity expressed in sf9 cell membranes assessed as residual activity at 20 uM using ATP as substrate preincubated for 5 mins followed by substrate addition measured after 20 mins by spectrophotometric method relative to control; conditions: Sf9 cell membranes expressing MDR1, probe ATP, read-out: Activity
Chain of MDR1 (ABCB1, P-gp) ATPase (P08183 whole entry): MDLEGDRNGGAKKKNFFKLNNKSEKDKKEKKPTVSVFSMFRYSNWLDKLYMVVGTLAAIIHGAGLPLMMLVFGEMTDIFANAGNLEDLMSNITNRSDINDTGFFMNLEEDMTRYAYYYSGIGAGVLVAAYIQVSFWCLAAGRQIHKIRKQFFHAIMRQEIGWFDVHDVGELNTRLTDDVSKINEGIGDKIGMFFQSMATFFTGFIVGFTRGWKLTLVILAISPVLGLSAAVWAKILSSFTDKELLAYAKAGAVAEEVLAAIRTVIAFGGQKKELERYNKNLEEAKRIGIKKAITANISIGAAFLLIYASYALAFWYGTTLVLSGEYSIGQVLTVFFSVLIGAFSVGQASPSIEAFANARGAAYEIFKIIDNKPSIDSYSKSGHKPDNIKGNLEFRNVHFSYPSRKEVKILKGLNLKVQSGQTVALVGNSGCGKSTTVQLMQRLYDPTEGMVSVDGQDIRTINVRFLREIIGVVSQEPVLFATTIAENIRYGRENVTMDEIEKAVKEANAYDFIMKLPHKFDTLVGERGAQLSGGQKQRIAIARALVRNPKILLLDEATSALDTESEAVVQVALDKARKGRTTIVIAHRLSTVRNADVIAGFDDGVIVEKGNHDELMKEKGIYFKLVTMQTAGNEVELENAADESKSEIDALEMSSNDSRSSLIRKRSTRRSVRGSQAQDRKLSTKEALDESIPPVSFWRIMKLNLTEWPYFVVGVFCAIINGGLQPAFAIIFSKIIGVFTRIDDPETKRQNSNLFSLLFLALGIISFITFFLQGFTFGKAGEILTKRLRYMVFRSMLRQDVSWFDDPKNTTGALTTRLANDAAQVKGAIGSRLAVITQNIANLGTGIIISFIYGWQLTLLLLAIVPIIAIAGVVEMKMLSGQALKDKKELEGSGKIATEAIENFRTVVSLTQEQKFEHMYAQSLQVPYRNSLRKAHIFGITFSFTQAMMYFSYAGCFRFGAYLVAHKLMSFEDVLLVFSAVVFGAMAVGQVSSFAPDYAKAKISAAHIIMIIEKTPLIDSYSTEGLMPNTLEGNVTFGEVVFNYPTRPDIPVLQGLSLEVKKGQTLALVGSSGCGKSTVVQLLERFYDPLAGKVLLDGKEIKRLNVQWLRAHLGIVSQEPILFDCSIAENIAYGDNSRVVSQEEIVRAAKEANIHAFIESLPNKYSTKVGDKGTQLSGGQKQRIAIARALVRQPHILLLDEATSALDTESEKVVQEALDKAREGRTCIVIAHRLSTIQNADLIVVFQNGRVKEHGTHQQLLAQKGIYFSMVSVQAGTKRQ

[3] = Displacement of BODIPY-labeled vinblastine from tubulin (unknown origin) at 18 uM after 60 mins by fluorescence assay relative to control; conditions: Homo sapiens
[4] = Apparent permeability from basolateral to apical side in human Caco2 cells; type: ADME, cell-based; conditions: Caco-2
[5] = Antiproliferative activity against human HCT116/VP35 cells after 72 hrs by phosphatase assay; type: functional, cell-based; conditions: HCT-116, 72 h
[6] = test system: LNCaP; assay: Antiproliferative activity against human LNCAP cells after 72 hrs by phosphatase assay; type: functional, cell-based
[7] = test system: LS174T; assay: Antiproliferative activity against human LS174T cells after 72 hrs by phosphatase assay; type: functional, cell-based
[8] = test system: MDA-MB-468; assay: Antiproliferative activity against human MDA-MB-468 cells after 72 hrs by phosphatase assay; type: functional, cell-based; conditions: MDA-MB-468, 72 h
[9] = test system: HCT-116; assay: Antiproliferative activity against human HCT116 cells after 72 hrs by phosphatase assay; type: functional, cell-based; conditions: HCT-116, 72 h
[10] = test system: L1210; assay: Antiproliferative activity against mouse L1210 cells after 72 hrs by phosphatase assay; type: functional, cell-based; conditions: L1210, 72 h
[11] = test system: NCI-H520; assay: Antiproliferative activity against human NCI-H520 cells after 72 hrs by phosphatase assay; type: functional, cell-based; conditions: NCI-H520, 72 h
[12] = test system: PA-1; assay: Antiproliferative activity against human PA1 cells after 72 hrs by phosphatase assay; type: functional, cell-based; conditions: PA-1, 72 h
[13] = test system: HCT-116; assay: Antiproliferative activity against human HCT116 cells; type: functional, cell-based
[14] = Cytotoxicity against human HCT116/VM46 cells assessed as reduction in cell viability; type: cell-based; conditions: HCT-116/VM46
[15] = test system: L1210; assay: Antiproliferative activity against mouse L1210 cells; type: functional, cell-based

SMILES	IC50 [1] [nM]	inhibition [3] [%]	IC50 [9] [nM]	IC50 [10] [nM]	other results
CC[C@]1(O)C[C@@H]2CN(CCc3c([nH]c4ccccc34)[C@@](C(=O)OC)(c3cc4c(cc3OC)N(C)[C@H]3[C@@](O)(C(=O)OC)[C@H](OC(C)=O)[C@]5(CC)C=CCN6CC[C@]43[C@@H]65)C2)C1 [VINBLASTINE]	110 to 600	50 to 61			activity at 20 min, 20 µM [2]: 87%; Papp B→A [4]: 38.2 ×10⁻⁶ cm/s; IC50 [5]: 37 nM; IC50 [6]: 5.1 nM; IC50 [7]: 20 nM; IC50 [8]: 14 nM
CC[C@]1(NC(=O)c2ccccc2)C[C@H]2CN(CCc3c([nH]c4ccccc34)[C@@](C(=O)OC)(c3cc4c(cc3OC)N(C)[C@H]3[C@@](O)(C(=O)OC)[C@H](OC(C)=O)[C@]5(CC)C=CCN6CC[C@]43[C@@H]65)C2)C1	20	72	0.8	1.1	
CC[C@]1(NC(=O)c2ccc(N(C)C)cc2)C[C@H]2CN(CCc3c([nH]c4ccccc34)[C@@](C(=O)OC)(c3cc4c(cc3OC)N(C)[C@H]3[C@@](O)(C(=O)OC)[C@H](OC(C)=O)[C@]5(CC)C=CCN6CC[C@]43[C@@H]65)C2)C1	4.1	88		0.18	
CC[C@]1(NC(=O)c2ccc3c(c2)CCCC3)C[C@H]2CN(CCc3c([nH]c4ccccc34)[C@@](C(=O)OC)(c3cc4c(cc3OC)N(C)[C@H]3[C@@](O)(C(=O)OC)[C@H](OC(C)=O)[C@]5(CC)C=CCN6CC[C@]43[C@@H]65)C2)C1	8.7 to 14	63	4.9	3.3	activity at 20 min, 20 µM [2]: 0%; Papp B→A [4]: 2 ×10⁻⁶ cm/s; IC50 [5]: 6.2 nM; IC50 [6]: 3.9 nM; IC50 [7]: 6.6 nM; IC50 [8]: 6.3 nM; IC50 [11]: 1.8 nM; IC50 [12]: 2.6 nM
CC[C@]1(NC(=O)c2ccc(C#N)cc2)C[C@H]2CN(CCc3c([nH]c4ccccc34)[C@@](C(=O)OC)(c3cc4c(cc3OC)N(C)[C@H]3[C@@](O)(C(=O)OC)[C@H](OC(C)=O)[C@]5(CC)C=CCN6CC[C@]43[C@@H]65)C2)C1	60	56	3.1	4.4	
CC(=O)O[C@H]1C(=O)[C@@]2(C)[C@H]([C@H](OC(=O)c3ccccc3)[C@]3(O)C[C@H](OC(=O)[C@H](O)[C@@H](NC(=O)c4ccccc4)c4ccccc4)C(C)=C1C3(C)C)[C@]1(OC(C)=O)CO[C@@H]1C[C@@H]2O [PACLITAXEL]	> 200		4.1		IC50 [5]: 6.3 nM; IC50 [6]: 1.9 nM; IC50 [7]: 9.5 nM; IC50 [8]: 5.4 nM; IC50 [11]: 8.2 nM; IC50 [12]: 3 nM
CC[C@]1(NC(=O)C(F)(F)F)C[C@H]2CN(CCc3c([nH]c4ccccc34)[C@@](C(=O)OC)(c3cc4c(cc3OC)N(C)[C@H]3[C@@](O)(C(=O)OC)[C@H](OC(C)=O)[C@]5(CC)C=CCN6CC[C@]43[C@@H]65)C2)C1					IC50 [13]: 690 nM; IC50 [14]: 8100 nM; IC50 [15]: 660 nM
CC[C@]1(NC(=O)c2ccc3c(c2)CCCO3)C[C@H]2CN(CCc3c([nH]c4ccccc34)[C@@](C(=O)OC)(c3cc4c(cc3OC)N(C)[C@H]3[C@@](O)(C(=O)OC)[C@H](OC(C)=O)[C@]5(CC)C=CCN6CC[C@]43[C@@H]65)C2)C1	1.8 to 4.9	98	0.5 to 0.7	0.4	IC50 [5]: 1.4 nM; IC50 [6]: 0.8 nM; IC50 [7]: 2.4 nM; IC50 [8]: 1.2 nM; IC50 [11]: 0.8 nM; IC50 [12]: 1 nM
CC[C@]1(NC=O)C[C@H]2CN(CCc3c([nH]c4ccccc34)[C@@](C(=O)OC)(c3cc4c(cc3OC)N(C)[C@H]3[C@@](O)(C(=O)OC)[C@H](OC(C)=O)[C@]5(CC)C=CCN6CC[C@]43[C@@H]65)C2)C1					IC50 [14]: 6500 nM; IC50 [15]: 65 nM
CC[C@]1(NC(=O)c2ccc(C)c(C)c2)C[C@H]2CN(CCc3c([nH]c4ccccc34)[C@@](C(=O)OC)(c3cc4c(cc3OC)N(C)[C@H]3[C@@](O)(C(=O)OC)[C@H](OC(C)=O)[C@]5(CC)C=CCN6CC[C@]43[C@@H]65)C2)C1	7.6 to 9	67	4.5 to 4.6	3	IC50 [5]: 5.8 nM; IC50 [6]: 3 nM; IC50 [7]: 6.1 nM; IC50 [8]: 4.8 nM; IC50 [11]: 1.4 nM; IC50 [12]: 2.3 nM
CCC(=O)N[C@@]1(CC)C[C@H]2CN(CCc3c([nH]c4ccccc34)[C@@](C(=O)OC)(c3cc4c(cc3OC)N(C)[C@H]3[C@@](O)(C(=O)OC)[C@H](OC(C)=O)[C@]5(CC)C=CCN6CC[C@]43[C@@H]65)C2)C1	2100		60	60	
CC[C@]1(NC(=O)c2cccc3ccccc23)C[C@H]2CN(CCc3c([nH]c4ccccc34)[C@@](C(=O)OC)(c3cc4c(cc3OC)N(C)[C@H]3[C@@](O)(C(=O)OC)[C@H](OC(C)=O)[C@]5(CC)C=CCN6CC[C@]43[C@@H]65)C2)C1	220		65	60	
CC[C@]1(NC(C)=O)C[C@H]2CN(CCc3c([nH]c4ccccc34)[C@@](C(=O)OC)(c3cc4c(cc3OC)N(C)[C@H]3[C@@](O)(C(=O)OC)[C@H](OC(C)=O)[C@]5(CC)C=CCN6CC[C@]43[C@@H]65)C2)C1					IC50 [14]: 7500 nM; IC50 [15]: 65 nM
CC[C@]1(NC(=O)c2ccc3c(c2)OCCN3C)C[C@H]2CN(CCc3c([nH]c4ccccc34)[C@@](C(=O)OC)(c3cc4c(cc3OC)N(C)[C@H]3[C@@](O)(C(=O)OC)[C@H](OC(C)=O)[C@]5(CC)C=CCN6CC[C@]43[C@@H]65)C2)C1	4.9		0.3	0.3	
CC[C@]1(NC(=O)C2CCC2)C[C@H]2CN(CCc3c([nH]c4ccccc34)[C@@](C(=O)OC)(c3cc4c(cc3OC)N(C)[C@H]3[C@@](O)(C(=O)OC)[C@H](OC(C)=O)[C@]5(CC)C=CCN6CC[C@]43[C@@H]65)C2)C1	85		5.4	5.4	
CC[C@]1(NC(=O)c2ccc3ccsc3c2)C[C@H]2CN(CCc3c([nH]c4ccccc34)[C@@](C(=O)OC)(c3cc4c(cc3OC)N(C)[C@H]3[C@@](O)(C(=O)OC)[C@H](OC(C)=O)[C@]5(CC)C=CCN6CC[C@]43[C@@H]65)C2)C1	7.7		2.9	3.1	
CC[C@]1(NC(=O)c2ccc3ccccc3n2)C[C@H]2CN(CCc3c([nH]c4ccccc34)[C@@](C(=O)OC)(c3cc4c(cc3OC)N(C)[C@H]3[C@@](O)(C(=O)OC)[C@H](OC(C)=O)[C@]5(CC)C=CCN6CC[C@]43[C@@H]65)C2)C1	270		40	40	
CC[C@]1(NC(=O)c2ccc(CC(C)C)cc2)C[C@H]2CN(CCc3c([nH]c4ccccc34)[C@@](C(=O)OC)(c3cc4c(cc3OC)N(C)[C@H]3[C@@](O)(C(=O)OC)[C@H](OC(C)=O)[C@]5(CC)C=CCN6CC[C@]43[C@@H]65)C2)C1	65		10	25	
CC[C@]1(NC(=O)C2CCN(C(=O)OC(C)(C)C)CC2)C[C@H]2CN(CCc3c([nH]c4ccccc34)[C@@](C(=O)OC)(c3cc4c(cc3OC)N(C)[C@H]3[C@@](O)(C(=O)OC)[C@H](OC(C)=O)[C@]5(CC)C=CCN6CC[C@]43[C@@H]65)C2)C1	500		45	50	
CC[C@]1(NC(=O)c2cocn2)C[C@H]2CN(CCc3c([nH]c4ccccc34)[C@@](C(=O)OC)(c3cc4c(cc3OC)N(C)[C@H]3[C@@](O)(C(=O)OC)[C@H](OC(C)=O)[C@]5(CC)C=CCN6CC[C@]43[C@@H]65)C2)C1	90		4	4.5	
CC[C@]1(NC(=O)c2cncs2)C[C@H]2CN(CCc3c([nH]c4ccccc34)[C@@](C(=O)OC)(c3cc4c(cc3OC)N(C)[C@H]3[C@@](O)(C(=O)OC)[C@H](OC(C)=O)[C@]5(CC)C=CCN6CC[C@]43[C@@H]65)C2)C1	45		0.6	1.8	
CC[C@]1(NC(=O)c2cscn2)C[C@H]2CN(CCc3c([nH]c4ccccc34)[C@@](C(=O)OC)(c3cc4c(cc3OC)N(C)[C@H]3[C@@](O)(C(=O)OC)[C@H](OC(C)=O)[C@]5(CC)C=CCN6CC[C@]43[C@@H]65)C2)C1	80		6.3	5.6	
CC[C@]1(NC(=O)c2ccc3c(c2)OCO3)C[C@H]2CN(CCc3c([nH]c4ccccc34)[C@@](C(=O)OC)(c3cc4c(cc3OC)N(C)[C@H]3[C@@](O)(C(=O)OC)[C@H](OC(C)=O)[C@]5(CC)C=CCN6CC[C@]43[C@@H]65)C2)C1	8.7		0.8	0.6	
